{"source": "patent US6013628A", "about": "“Method for treating conditions of the eye using polypeptides” (Regents of the University of Minnesota, priority 1995, dated 2000)", "key": {"[1]": {"tested_on": "proliferative vitreoretinopathy in rabbits", "assay": "Rabbit model of experimental proliferative vitreoretinopathy (intravitreal fibroblast injection)", "format": "in vivo", "experimental": "The rabbit model for proliferative vitreoretinopathy is described in Thresher et al., Graefe's Arch. Clin. Exp. Ophthalmol., 221, 192-198 (1984). Adult Dutch Belted rabbits of both sexes were used in the study. All animals were treated according to ARVO Animal Use Guidelines. All eyes were examined prior to initiation of a study and only clinically normal animals were used.\nThe rabbits were anesthetized using an intramuscular injection of a mix of ketamine (30 mg/kg) and xylazine (5 mg/kg). Pupils were dilated with Mydriacyl (Tropicamide) 1% and Neosynephrine 2.5% topical drops. Topical conjunctival anesthesia was provided with Proparacaine […] drops. All procedures were performed in an approved animal surgical facility. […] This site was used for subsequent intraocular injections, preventing iatrogenic retinal tears at the injection site. An intravitreal injection of 0.4 cc millipore-filtered 100% perfluoropropane gas was administered to produce a gas compression vitrectomy. Once the expansile gas bubble had absorbed, 5-10×10^4 dermal rabbit fibroblasts with or without 200 μg of polypeptide (injection volume-0.1 cc) were injected through a 27 gauge needle into the vitreous cavity. Under indirect ophthalmoscopic visualization, the tip of the needle was placed over the optic nerve head and the cells were injected in this location.\nThe animals were then observed for the development of proliferative vitreoretinopathy. The final stage of retinal detachment was scored from 0 to 7 using the standard grading scale shown below (see Hida et al., Graefe's Arch. Clin. Exp. Ophthalmol., 225, 1763-1769 (1991)).\nRetinal photographs were taken with a wide field fundus camera (Canon) to document the final stage of retinal detachment. Animals were sacrificed while under deep anesthesia with an intravenous injection of 1 cc of euthanasia solution. The eyes were then immediately enucleated, fixed in 10% formalin, paraffin embedded, sectioned at 7 microns, and stained with hematoxylin and eosin for histology.\nThree weeks following peripheral retinal cryopexy and gas compression vitrectomy, rabbit fibroblasts incubated for 1 hr with 200 ug of laminin polypeptide R37, type IV collagen polypeptide Hep-II, or BSS (balanced saline solution; control) were injected intravitreally. One eye of each rabbit received polypeptide incubated fibroblasts and the other eye received the control cells. Eyes were examined every three days, and the degree of retinal detachment was graded on the standard scale described above."}, "[2]": {"tested_on": "filtration surgery in rabbits", "assay": "Rabbit model of glaucoma filtration surgery failure", "format": "in vivo", "design": "IOP: unit not given here", "experimental": "The rabbit model for filtration surgery is described by Bergstrom TJ, and Skuta GL. et al. in Arch. Ophthalmol, 109(12):1725-30, 1991. Two New Zealand white albino rabbits were used in the study. All animals were treated according to ARVO Animal Use Guidelines. All eyes were examined prior to initiation of a study and only clinically normal animals were used.\nAll the rabbits underwent preoperative examination and the intraocular pressure (IOP) was measured by pneumatonometry (PneumaTonometer, Digilab Model 30R, Cambridge, Mass.). The rabbits were anesthetized using an intramuscular injection of a mix of ketamine (30 mg/kg) and xylazine (5 mg/kg). A posterior lip sclerectomy was then performed on both eyes of each animal during the same period of anesthesia. […] The superotemporal conjuctiva and Tenon's capsule was incised near the fornix, and the dissection was performed anteriorly to the limbus. The anterior chamber was entered at the filtration site and a 1-mm by 3-mm block of limbal scleral tissue was excised from the posterior lip of the wound with the Kelly-Descemet punch. A peripheral iridectomy was then performed with Vannas scissors and curved jeweler's forceps. Hand-held thermal cautery was used as needed to provide hemostasis. The conjunctiva was closed with a running 10-0 nylon suture. The right eye received subconjunctival injection of the Hep-II dissolved in 0.15 ml distilled water at the end of the filtration surgery and the left eye, which served as the control, received an equal volume of distilled water. These and each of the subsequent injections were made into the area of the bleb. No prophylactic antibiotics, cycloplegic, or corticosteroid was applied to either eye intraoperatively or postoperatively. Postoperative evaluation included examination with a portable slit-lamp biomicroscope, evaluation of the filtering bleb and intraocular pressure measurements obtained with a pneumatonometer. At the end of the study the animals were sacrificed while under anesthesia with an intravenous injection of 1 cc of euthanasia solution.\nThe results of filtration surgery were evaluated by monitoring intraocular pressures and visual inspection of scarring and vascularization. The ability of ability of a synthetic polypeptide to prolong the effect of glaucoma treatment by filtration surgery was examined using the rabbit model. The right eye was treated with subconjunctival injection of 1 milligram of Hep-II dissolved in 0.15 ml of distilled water at the end of filtration surgery and every other day for a total of eight injections. The left eye served as the control and received an equal volume of distilled water on those days. The intraocular pressures (IOP) were checked using a pneumatonometer every day until day 9 and roughly every other day until day 28 (Table V and FIG. 27). […] Control eyes reached pre-operative pressures between about day 4 and day 9."}}, "note": "No end group written: not given here."}
{"sequence": "LAGSCLARFSTM [Hep-II, Leu-Ala-Gly-Ser-Cys-Leu-Ala-Arg-Phe-Ser-Thr-Met]", "values": [{"measurement": "Retina appearance (stage 0-7 scale), fundus photograph", "setting": "[1]; 200 ug with 100,000 fibroblasts, seven weeks after fibroblast injection", "result": "normal (Stage 0)"}, {"measurement": "# Detached Retinas (%)", "setting": "[1]; Expt I: 200 ug, 50,000 cells, RD staged at day 21, control 66%", "result": 17, "unit": "%"}, {"measurement": "# Detached Retinas", "setting": "[1]; Expt I: 200 ug, 50,000 cells, RD staged at day 21, total 6 eyes, control 4 of 6", "result": 1}, {"measurement": "Degree of retinal detachment", "setting": "[1]; fibroblasts incubated 1 hr with 200 ug polypeptide, intravitreal", "result": "inhibited the degree of retinal detachment"}, {"measurement": "IOP in treated eyes versus control eyes", "setting": "[2]; 1 milligram subconjunctival every other day, eight injections, 28 days, p<0.001", "result": "lower than the control eyes"}, {"measurement": "IOP", "setting": "[2]; Rabbit #3 OD (1 milligram Hep-II subconjunctival, eight injections), Post op #1, Pre op 32, control OS 22", "result": 24}, {"measurement": "IOP", "setting": "[2]; Rabbit #3 OD (1 milligram Hep-II subconjunctival, eight injections), Post op #2, Pre op 32, control OS 31", "result": 30}, {"measurement": "IOP", "setting": "[2]; Rabbit #3 OD (1 milligram Hep-II subconjunctival, eight injections), Post op #3, Pre op 32, control OS 30", "result": 25}, {"measurement": "IOP", "setting": "[2]; Rabbit #3 OD (1 milligram Hep-II subconjunctival, eight injections), Post op #4, Pre op 32, control OS 32", "result": 23}, {"measurement": "IOP", "setting": "[2]; Rabbit #3 OD (1 milligram Hep-II subconjunctival, eight injections), Post op #5, Pre op 32, control OS 32", "result": 22}, {"measurement": "IOP", "setting": "[2]; Rabbit #3 OD (1 milligram Hep-II subconjunctival, eight injections), Post op #6, Pre op 32, control OS 32", "result": 21}, {"measurement": "IOP", "setting": "[2]; Rabbit #3 OD (1 milligram Hep-II subconjunctival, eight injections), Post op #7, Pre op 32, control OS 30", "result": 21}, {"measurement": "IOP", "setting": "[2]; Rabbit #3 OD (1 milligram Hep-II subconjunctival, eight injections), Post op #8, Pre op 32, control OS 31", "result": 24}, {"measurement": "IOP", "setting": "[2]; Rabbit #3 OD (1 milligram Hep-II subconjunctival, eight injections), Post op #9, Pre op 32, control OS 30", "result": 22}, {"measurement": "IOP", "setting": "[2]; Rabbit #3 OD (1 milligram Hep-II subconjunctival, eight injections), Post op #13, Pre op 32, control OS 30", "result": 24}, {"measurement": "IOP", "setting": "[2]; Rabbit #3 OD (1 milligram Hep-II subconjunctival, eight injections), Post op #14, Pre op 32, control OS 28", "result": 18}, {"measurement": "IOP", "setting": "[2]; Rabbit #3 OD (1 milligram Hep-II subconjunctival, eight injections), Post op #15, Pre op 32, control OS 33", "result": 25}, {"measurement": "IOP", "setting": "[2]; Rabbit #3 OD (1 milligram Hep-II subconjunctival, eight injections), Post op #16, Pre op 32, control OS 35", "result": 27}, {"measurement": "IOP", "setting": "[2]; Rabbit #3 OD (1 milligram Hep-II subconjunctival, eight injections), Post op #18, Pre op 32, control OS 34", "result": 26}, {"measurement": "IOP", "setting": "[2]; Rabbit #3 OD (1 milligram Hep-II subconjunctival, eight injections), Post op #20, Pre op 32, control OS 32", "result": 25}, {"measurement": "IOP", "setting": "[2]; Rabbit #3 OD (1 milligram Hep-II subconjunctival, eight injections), Post op #21, Pre op 32, control OS 32", "result": 28}, {"measurement": "IOP", "setting": "[2]; Rabbit #3 OD (1 milligram Hep-II subconjunctival, eight injections), Post op #24, Pre op 32, control OS 32", "result": 26}, {"measurement": "IOP", "setting": "[2]; Rabbit #3 OD (1 milligram Hep-II subconjunctival, eight injections), Post op #27, Pre op 32, control OS 34", "result": 33}, {"measurement": "IOP", "setting": "[2]; Rabbit #3 OD (1 milligram Hep-II subconjunctival, eight injections), Post op #28, Pre op 32, control OS 35", "result": 33}, {"measurement": "IOP", "setting": "[2]; Rabbit #4 OD (1 milligram Hep-II subconjunctival, eight injections), Post op #1, Pre op 34, control OS 25", "result": 24}, {"measurement": "IOP", "setting": "[2]; Rabbit #4 OD (1 milligram Hep-II subconjunctival, eight injections), Post op #2, Pre op 34, control OS 25", "result": 30}, {"measurement": "IOP", "setting": "[2]; Rabbit #4 OD (1 milligram Hep-II subconjunctival, eight injections), Post op #3, Pre op 34, control OS 20", "result": 22}, {"measurement": "IOP", "setting": "[2]; Rabbit #4 OD (1 milligram Hep-II subconjunctival, eight injections), Post op #4, Pre op 34, control OS 25", "result": 22}, {"measurement": "IOP", "setting": "[2]; Rabbit #4 OD (1 milligram Hep-II subconjunctival, eight injections), Post op #5, Pre op 34, control OS 30", "result": 24}, {"measurement": "IOP", "setting": "[2]; Rabbit #4 OD (1 milligram Hep-II subconjunctival, eight injections), Post op #6, Pre op 34, control OS 31", "result": 23}, {"measurement": "IOP", "setting": "[2]; Rabbit #4 OD (1 milligram Hep-II subconjunctival, eight injections), Post op #7, Pre op 34, control OS 30", "result": 23}, {"measurement": "IOP", "setting": "[2]; Rabbit #4 OD (1 milligram Hep-II subconjunctival, eight injections), Post op #8, Pre op 34, control OS 32", "result": 25}, {"measurement": "IOP", "setting": "[2]; Rabbit #4 OD (1 milligram Hep-II subconjunctival, eight injections), Post op #9, Pre op 34, control OS 37", "result": 26}, {"measurement": "IOP", "setting": "[2]; Rabbit #4 OD (1 milligram Hep-II subconjunctival, eight injections), Post op #13, Pre op 34, control OS 32", "result": 27}, {"measurement": "IOP", "setting": "[2]; Rabbit #4 OD (1 milligram Hep-II subconjunctival, eight injections), Post op #14, Pre op 34, control OS 27", "result": 20}, {"measurement": "IOP", "setting": "[2]; Rabbit #4 OD (1 milligram Hep-II subconjunctival, eight injections), Post op #15, Pre op 34, control OS 35", "result": 25}, {"measurement": "IOP", "setting": "[2]; Rabbit #4 OD (1 milligram Hep-II subconjunctival, eight injections), Post op #16, Pre op 34, control OS 37", "result": 28}, {"measurement": "IOP", "setting": "[2]; Rabbit #4 OD (1 milligram Hep-II subconjunctival, eight injections), Post op #18, Pre op 34, control OS 35", "result": 27}, {"measurement": "IOP", "setting": "[2]; Rabbit #4 OD (1 milligram Hep-II subconjunctival, eight injections), Post op #20, Pre op 34, control OS 34", "result": 27}, {"measurement": "IOP", "setting": "[2]; Rabbit #4 OD (1 milligram Hep-II subconjunctival, eight injections), Post op #21, Pre op 34, control OS 40", "result": 32}, {"measurement": "IOP", "setting": "[2]; Rabbit #4 OD (1 milligram Hep-II subconjunctival, eight injections), Post op #24, Pre op 34, control OS 34", "result": 28}, {"measurement": "IOP", "setting": "[2]; Rabbit #4 OD (1 milligram Hep-II subconjunctival, eight injections), Post op #27, Pre op 34, control OS 36", "result": 33}, {"measurement": "IOP", "setting": "[2]; Rabbit #4 OD (1 milligram Hep-II subconjunctival, eight injections), Post op #28, Pre op 34, control OS 36", "result": 35}, {"measurement": "Effect on duration of filtration surgery effect", "setting": "[2]; rabbits in vivo", "result": "prolongs the effect of filtration surgery"}, {"measurement": "Day until which blebs remained avascular (appeared functional)", "setting": "[2]; treated eyes, control eyes until day 10", "result": 18, "unit": "days"}]}
